The record followed here is ChEMBL document CHEMBL4610090, “Oleanolic Acid Ameliorates Benign Prostatic Hyperplasia by Regulating PCNA-Dependent Cell Cycle Progression In Vivo and In Vitro” (J Nat Prod, 2020).

The test system of data set [1] is Rattus norvegicus. The experiment in a line: Suppression of prostate tissue weight in Sprague-Dawley rat model of testosterone propionate-induced benign prostatic hyperplasia at 10 mg/kg, po relative to control. The data set is classed as functional.
For data set [2], the system named is Rattus norvegicus. Kind of data set: Suppression of serum DHT level in Sprague-Dawley rat model of testosterone propionate-induced benign prostatic hyperplasia at 10 mg/kg, po by ELISA. It is filed as functional, organism-based. In general terms: ELISA stands for enzyme-linked immunosorbent assay.
The subject of data set [3] is Rattus norvegicus. Kind of data set: Suppression of 5-alpha reductase2 mRNA expression in Sprague-Dawley rat model of testosterone propionate-induced benign prostatic hyperplasia at 10 mg/kg, po by qRT-PCR method. The data set is classed as functional, organism-based. (Real-time PCR tracks product formation cycle by cycle.)
Data set [4] deals with Rattus norvegicus. Kind of data set: Downregulation of prostate Bcl2 expression in Sprague-Dawley rat model of testosterone propionate-induced benign prostatic hyperplasia at 10 mg/kg, po by Western blot analysis. The data set is classed as functional, organism-based. On the technique in general: A western blot detects proteins with antibodies after separation by electrophoresis.

Data set [5] deals with Rattus norvegicus. The experiment in a line: Downregulation of prostate Bcl-xL expression in Sprague-Dawley rat model of testosterone propionate-induced benign prostatic hyperplasia at 10 mg/kg, po by Western blot analysis. The data set is classed as functional, organism-based.
Data set [6] deals with Rattus norvegicus. The experiment in a line: Induction of PARP1 cleavage in prostate tissue of Sprague-Dawley rat model of testosterone propionate-induced benign prostatic hyperplasia at 10 mg/kg, po by Western blot analysis. It is filed as functional, organism-based.
In data set [7] the test system is Rattus norvegicus. The experiment in a line: Suppression of prostate tissue weight in Sprague-Dawley rat model of testosterone propionate-induced benign prostatic hyperplasia at 1 mg/kg, ip relative to control. It is filed as functional.
Data set [8] has as its system Rattus norvegicus. Kind of data set: Suppression of prostate tissue weight in Sprague-Dawley rat model of testosterone propionate-induced benign prostatic hyperplasia at 10 mg/kg, ip relative to control. The data set is classed as functional.
A short description of data set [9]: Toxicity in Sprague-Dawley rat model of testosterone propionate-induced benign prostatic hyperplasia assessed as effect on body weight at 1 to 10 mg/kg, ip. The data set is classed as organism-based. The settings on record: in vivo.
The nature of data set [10]: Toxicity in Sprague-Dawley rat model of testosterone propionate-induced benign prostatic hyperplasia assessed as behavioural changes at 1 to 10 mg/kg, ip. It is filed as organism-based. The note with it: in vivo.
Data set [11] can be described thus: Toxicity in Sprague-Dawley rat model of testosterone propionate-induced benign prostatic hyperplasia assessed as effect on animal health at 1 to 10 mg/kg, ip. The note with it: in vivo. It is filed as organism-based.
For data set [12], the system named is Rattus norvegicus. Kind of data set: Suppression of serum DHT level in Sprague-Dawley rat model of testosterone propionate-induced benign prostatic hyperplasia at 1 to 10 mg/kg, ip by ELISA. It is filed as functional, organism-based.
Data set [13] has as its system Rattus norvegicus. The experiment in a line: Suppression of 5-alpha reductase2 mRNA expression in Sprague-Dawley rat model of testosterone propionate-induced benign prostatic hyperplasia at 1 to 10 mg/kg, ip by qRT-PCR method. It is filed as functional, organism-based.
The test system of data set [14] is Rattus norvegicus. The experiment in a line: Suppression of prostate epithelial thickness in Sprague-Dawley rat model of testosterone propionate-induced benign prostatic hyperplasia at 1 mg/kg, ip by hematoxylin and eosin staining-based microscopic analysis relative to control. The data set is classed as functional.
Data set [15] has as its system Rattus norvegicus. Kind of data set: Suppression of prostate epithelial thickness in Sprague-Dawley rat model of testosterone propionate-induced benign prostatic hyperplasia at 10 mg/kg, ip by hematoxylin and eosin staining-based microscopic analysis relative to control. It is filed as functional.
Data set [16] has as its system Rattus norvegicus. Kind of data set: Downregulation of prostate Bcl2 expression in Sprague-Dawley rat model of testosterone propionate-induced benign prostatic hyperplasia at 1 to 10 mg/kg, ip by Western blot analysis. It is filed as functional, organism-based.
Data set [17] deals with Rattus norvegicus. Kind of data set: Downregulation of prostate Bcl-xL expression in Sprague-Dawley rat model of testosterone propionate-induced benign prostatic hyperplasia at 1 to 10 mg/kg, ip by Western blot analysis. It is filed as functional, organism-based.
Data set [18] relates to Rattus norvegicus. The experiment in a line: Induction of PARP1 cleavage in prostate tissue of Sprague-Dawley rat model of testosterone propionate-induced benign prostatic hyperplasia at 10 mg/kg, ip by Western blot analysis. It is filed as functional, organism-based.
Data set [19] has as its system Rattus norvegicus. The experiment in a line: Downregulation of Cdk4 expression in prostate tissue of Sprague-Dawley rat model of testosterone propionate-induced benign prostatic hyperplasia at 1 to 10 mg/kg, ip by Western blot analysis. The data set is classed as functional, organism-based.
For data set [20], the system named is Rattus norvegicus. Kind of data set: Downregulation of Cyclin D1 expression in prostate tissue of Sprague-Dawley rat model of testosterone propionate-induced benign prostatic hyperplasia at 1 to 10 mg/kg, ip by Western blot analysis. The data set is classed as functional, organism-based.
Data set [21] relates to Rattus norvegicus. Kind of data set: Downregulation of Cdk2 expression in prostate tissue of Sprague-Dawley rat model of testosterone propionate-induced benign prostatic hyperplasia at 1 to 10 mg/kg, ip by Western blot analysis. The data set is classed as functional, organism-based.
The subject of data set [22] is Rattus norvegicus. Kind of data set: Downregulation of Cyclin E expression in prostate tissue of Sprague-Dawley rat model of testosterone propionate-induced benign prostatic hyperplasia at 1 to 10 mg/kg, ip by Western blot analysis. It is filed as functional, organism-based.
Data set [23] relates to Rattus norvegicus. The experiment in a line: Downregulation of PCNA expression in prostate tissue of Sprague-Dawley rat model of testosterone propionate-induced benign prostatic hyperplasia at 1 to 10 mg/kg, ip by Western blot analysis. It is filed as functional, organism-based.
Data set [24] relates to Rattus norvegicus. Kind of data set: Downregulation of PCNA mRNA expression in prostate tissue of Sprague-Dawley rat model of testosterone propionate-induced benign prostatic hyperplasia at 1 mg/kg, ip by qRT-PCR method. The data set is classed as functional.
Data set [25] relates to Rattus norvegicus. Kind of data set: Downregulation of PCNA mRNA expression in prostate tissue of Sprague-Dawley rat model of testosterone propionate-induced benign prostatic hyperplasia at 10 mg/kg, ip by qRT-PCR method. The data set is classed as functional.
Data set [26] deals with Rattus norvegicus. The experiment in a line: Downregulation of PCNA […] expression in prostate tissue of Sprague-Dawley rat model of testosterone propionate-induced benign prostatic hyperplasia at 1 to 10 mg/kg, ip by immunohistochemical analysis. It is filed as functional, organism-based.
For data set [27], the system named is BPH-1. The experiment in a line: Cytotoxicity against human BPH1 cells at 62.5 to 1000 uM by MTT assay. It is filed as functional, cell-based.
The subject of data set [28] is BPH-1. The experiment in a line: Downregulation of PCNA expression in human BPH1 cells at 125 to 500 uM after 24 hrs by immunoblot analysis. The data set is classed as functional, cell-based.
Data set [29] deals with Proliferating cell nuclear antigen (Homo sapiens) (UniProt P12004). Kind of data set: Inhibition of PCNA-mediated cell cycle progression in human BPH-1 cells assessed as reduction in cdk4 level at 125 to 500 uM after 24 hrs by immunoblot analysis. It is filed as cell-based.
Data set [30] has the same target. Kind of data set: Inhibition of PCNA-mediated cell cycle progression in human BPH-1 cells assessed as reduction in cyclin D level at 250 to 500 uM after 24 hrs by immunoblot analysis. The data set is classed as cell-based.

The source made the active and inactive calls. The rule behind the calls is not given here.

Sequence of Proliferating cell nuclear antigen (Homo sapiens) (P12004 whole entry): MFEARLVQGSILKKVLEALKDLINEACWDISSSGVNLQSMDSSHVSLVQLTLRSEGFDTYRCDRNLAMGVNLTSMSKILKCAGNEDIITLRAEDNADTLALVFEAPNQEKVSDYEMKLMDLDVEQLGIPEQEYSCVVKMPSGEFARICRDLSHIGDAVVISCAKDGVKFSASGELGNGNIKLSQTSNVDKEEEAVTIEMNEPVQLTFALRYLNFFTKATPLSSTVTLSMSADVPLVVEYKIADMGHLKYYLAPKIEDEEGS

In general, inhibition in vivo refers to the share of the control response that was lost under treatment. Read a high inhibition in vivo as a strong effect. `CC(C)(C)NC(=O)[C@H]1CC[C@H]2[C@@H]3CC[C@H]4NC(=O)C=C[C@]4(C)[C@H]3CC[C@]12C` [FINASTERIDE]: testing at 10 mg/kg in the data set with Rattus norvegicus [1] gave an inhibition in vivo of 32.5%. The outcome in the data set with Rattus norvegicus [2], in the data set with Rattus norvegicus [4], with Rattus norvegicus [5] and in the data set on Rattus norvegicus [6] was Active. The inhibition entry in the data set on Rattus norvegicus [3] is “Active”.

Consider `CC1(C)CC[C@]2(C(=O)O)CC[C@]3(C)C(=CC[C@@H]4[C@@]5(C)CC[C@H](O)C(C)(C)[C@@H]5CC[C@]43C)[C@@H]2C1` [OLEANOLIC_ACID], for which the inhibition in vivo at 1 mg/kg in the data set with Rattus norvegicus [7] was found to be 30.9%; in the data set on Rattus norvegicus [14], 48%. For the same molecule, the values for the inhibition in vivo at 10 mg/kg in the data set with Rattus norvegicus [8] and with Rattus norvegicus [15] were 31.2% and 54.8%, respectively. The Activity entry in data set [9] is on record as “Non-Toxic”; in data set [10] it was “Non-Toxic”; in [11], “Non-Toxic”; in the data set on Rattus norvegicus [24] it was 54.89%; in the data set with Rattus norvegicus [25], 71.16%. Besides, the inhibition result (in the data set with Rattus norvegicus [12]; in the data set with Rattus norvegicus [13]; in [29]; in data set [30]) was “Active” each time. The outcome in the data set on Rattus norvegicus [16], with Rattus norvegicus [17], in the data set on Rattus norvegicus [18], in the data set on Rattus norvegicus [19], in the data set with Rattus norvegicus [20] and with Rattus norvegicus [21] was Active. Further, the outcome in the data set with Rattus norvegicus [22], in the data set on Rattus norvegicus [23], in the data set with Rattus norvegicus [26], in the data set with BPH-1 [27] and in the data set on BPH-1 [28] was Active.
